Measured values taken from patent US9334524B2, “Methods for improving and managing nucleoside reverse-transcriptase inhibition based treatment” (priority 2011, dated 2016).
Where two headings read alike, the source gives them in different places.

What was measured:
[1] = system: HIV-1 reverse transcriptase; conditions: Strain A§§ (NT5C+, CNT2+), 200 μM, 72 hours
Protocol: HIV RT activity was determined in both strains as described in U.S. Pat. No. 5,714,313 as follows. Both HIV1 RT expressing strains were grown in SD-ura+glucose to saturation. 1 DO of saturated culture (about 10^7 cells) was seeded in 1 ml SGal-ura and grew for 6 hrs. Glucose was then added to stop RT activation. After 12 hours, induced cells were seeded at 0.2 DO/ml in SD-His media and incubated for 72 hours.

[2] = system: HIV-1 reverse transcriptase; conditions: Strain A#§ (dCK+, CNT2+), 200 μM, 72 hours
Protocol: HIV RT activity was determined in both strains as described in U.S. Pat. No. 5,714,313 as follows. Both HIV1 RT expressing strains were grown in SD-ura+glucose to saturation. 1 DO of saturated culture (about 10^7 cells) was seeded in 1 ml SGal-ura and grew for 6 hrs. Glucose was then added to stop RT activation. After 12 hours, induced cells were seeded at 0.2 DO/ml in SD-His media and incubated for 72 hours. Incubations were performed at 30° C. with shaking Inhibition of HIV-1 RT activity was determined by measuring the inhibition of growth in the presence 200 μM concentration of ABC (Abacavir) or TFV (Tenofovir) inhibitors, as shown in Table II.

[3] = system: HIV-1 reverse transcriptase; conditions: Strain B## (dCK+, OAT1+ in genome), 100 μM, 72 hours, FIG. 2
Description: S. cerevisiae strain B (Mat a, URA+, HIS−, LEU+) was transformed, using the standard Lithium Acetate protocol, with a previously linearized by StuI restriction enzyme p426GPDhdCK plasmid that contains the nucleic acid sequences coding for dCK and ura3, and where linearization occurred within the ura3 open reading frame. The new strain (Strain B#) where integration of dCK occurred at the ura3 locus has the following phenotype (Mat a, URA−, HIS−, LEU+, dCK+).
Strain B# was genetically modified by standard methods through transformation with a PCR amplified DNA fragment. This nucleic acid fragment contains the nucleic acid sequence coding for OAT1 transporter flanked by 5′ and 3′ non-coding regions of the leu2 locus. The new modified strain where dCK and OAT1 are integrated in the yeast genome, Strain B## (Mat a, URA−, HIS−, LEU−, dCK+, OAT1+), was transformed with the plasmid pHART21 described in U.S. Pat. No. 5,714,313. HIV-1 RT activity in Strain B## was determined as described in U.S. Pat. No. 5,714,313 after 72 hours incubation in the presence of 100 μM of either AZT, ddC, ddI or d4T.

[4] = system: HIV-1 reverse transcriptase; format: cell-based; conditions: for inhibition of cell growth, then reverse transcription (OD @ 600 nm): Strain A# (dCK in genome, OAT1 plasmid), 100 μM, 72 hours, FIG. 1; for inhibition of HIV RT enabled by expression of OAT1: transformed yeast cell expressing OAT1
[5] = system: HIV-1 reverse transcriptase; format: cell-based; conditions: for inhibition of cell growth, then reverse transcription (OD @ 600 nm): Strain A (not carrying dCK and OAT1), 100 μM, 72 hours, FIG. 1; for % Inhibition of HIV Reverse Transcriptase activity in yeast cells: Strain A (no dCK, no transporter), 200 μM, 72 hours incubation
[6] = system: HIV-1 reverse transcriptase; format: cell-based; conditions: for % Inhibition of HIV Reverse Transcriptase activity in yeast cells: Strain A# (dCK+, CNT3+), 200 μM, 72 hours incubation; for inhibition of HIV RT enabled by expression of CNT3: transformed yeast cell expressing CNT3

| SMILES | % Inhibition of HIV-1 Reverse transcriptase in modified yeast cells [1] [%] | % Inhibition of HIV-1 Reverse transcriptase in modified yeast cells [2] [%] | inhibition of cell growth (% inhibition), then reverse transcription, absorbance at 600 nm [3] | inhibition of cell growth, then reverse transcription (OD @ 600 nm) [4] | inhibition of HIV RT enabled by expression of OAT1 [4] | inhibition of cell growth, then reverse transcription (OD @ 600 nm) [5] | % Inhibition of HIV Reverse Transcriptase activity in yeast cells [6] [%] | inhibition of HIV RT enabled by expression of CNT3 [6] | % Inhibition of HIV Reverse Transcriptase activity in yeast cells [5] [%] |
| --- | --- | --- | --- | --- | --- | --- | --- | --- | --- |
| CC(C)OC(=O)OCOP(=O)(CO[C@H](C)Cn1cnc2c(N)ncnc21)OCOC(=O)OC(C)C [TFV, Tenofovir] | 0 | 96 |  |  |  |  |  |  |  |
| O=c1[nH]cnc2c1ncn2[C@H]1CC[C@@H](CO)O1 [ddI, Didanosine] |  |  | inhibits cell growth | inhibits cell growth | good inhibition | can not inhibit cell growth |  |  |  |
| Nc1ccn([C@H]2CC[C@@H](CO)O2)c(=O)n1 [ddC, Zalcitabine] |  |  | inhibits cell growth | inhibits cell growth | good inhibition | can not inhibit cell growth |  |  |  |
| Nc1nc(NC2CC2)c2ncn([C@H]3C=C[C@@H](CO)C3)c2n1 [ABC, Abacavir] | 0 | 87 |  |  |  |  |  |  |  |
| Cc1cn([C@H]2C=C[C@@H](CO)O2)c(=O)[nH]c1=O [d4T, Stavudine] |  |  | inhibits cell growth | inhibits cell growth | good inhibition | can not inhibit cell growth | 56 | good inhibition | 0 |
| Cc1cn([C@H]2C[C@H](N=[N+]=[N-])[C@@H](CO)O2)c(=O)[nH]c1=O [AZT, Zidovudine] |  |  | inhibits cell growth | inhibits cell growth | good inhibition | can not inhibit cell growth | 31 | good inhibition | 0 |
